Reference: publication PMC4147597 (Toxins, 2014)
pEC50, pIC50: −log10 of the molar value. Where two headings read alike, the source gives them in different places.

What was measured:
L-type Ca^2+ channels = conditions: read-out: IC50 for block of L-type Ca^2+ channels; cited from earlier work
Excerpt: (§1) There are a variety of valuable pharmacological tools available to study the contribution of specific IK channels to the mechanism of endothelium-dependent dilation in isolated vessels and to blood pressure control in vivo. IK channel modulators mainly comprise small organic compounds and venom-derived peptides. These different classes of chemicals modulate the channel by binding to either the external or the internal face of the ion-conducting pore. Among the different ion modulators, venom-derived peptides usually block their targets with high affinity, that is, with IC50 in the […] ...

[1] = system: cardiac hERG K^+ channels; conditions: micromolar concentrations; cited from earlier work
Excerpt: as §1

hIK1 [2] = target: T1, hIK1 (Homo sapiens, UniProt O15554); format: cell-based; conditions: for enhancement of the amplitude of IK currents: 0.3 μM free Ca^2+ in pipette, voltage ramps
T1 construct: expressed in transfected cells; host or cells: HEK293T cells, transient transfection with Lipofectamine 2000

hIK1 [3] = target: T1, hIK1; conditions: hIK1 cell line; read-out: EC50 for hIK1 activation; cited from earlier work
Excerpt: The intermediate-conductance Ca^2+-activated K^+ (IK) channels belong to the gene family of calcium/calmodulin-regulated and voltage-independent K^+ channels (SK1/SK2/SK3 and IK) and contribute to cellular functions by producing membrane hyperpolarization, thus regulating intracellular Ca^2+ signaling. IK channels are gated solely by internal Ca^2+, with a unit conductance of 20–85 pS. Expression of hIK1 in HEK293T cells gives rise to inwardly rectifying K^+ currents, which are activated by submicromolar concentrations of intracellular Ca^2+ (EC50 = 0.3 μM). […] After the application of 80 μM HNTX-I, NS309 still activated the current about 1.5-fold (Figure 3A). […] After the initial equilibration period, HNTX-I was added at 80 μM to yield a higher current within ~3 min. Then, 100 nM NS309 was applied and reached the peak in under 1 min. Thus, the p ...

mice = test: acute in vivo toxicity in mice; design: species or system mouse
Protocol: (§2) Five mice (17–19 g) were injected intravenously with multiple […] doses of 0.5–2.5 mg/kg HNTX-I (in mammalian Ringer solution with 1% ethanol and 2.5% BSA). Five control mice were injected with an equal volume of the vehicle. The toxicity of HNTX-I was qualitatively assayed by intra-abdominal injection into adult male cockroaches (Periplaneta) with body weights of 0.8–1.2 g at doses of 50–250 μg/g using 10-μL solutions (in 0.85% (w/v) normal saline).

[4] = system: voltage-gated T-type Ca^2+ channels; test: T-type Ca^2+ channels from DRG, whole-cell patch-clamp; format: cell-based; conditions: 100 μM; rat DRG; n = 5
[5] = system: American cockroach (Periplaneta americana); test: acute in vivo toxicity in American cockroach; conditions: intra-abdominal injection, 50–250 μg/g; adult male; 7 days
Protocol: as §2

rNav1.2/β1 = conditions: Xenopus laevis oocytes; ref previous works; cited from earlier work
BK channels = test: BK channel current in HEK293T cells, whole-cell patch-clamp; format: cell-based; conditions: 100 μM, n = 5
VGSCs = conditions: ref previous work; cited from earlier work
Excerpt: In general, hydrophobic and polar residue hot spots are important binding determinants in toxins and ion channel interactions. […] HNTX-I should therefore present a similar type of interacting surface as other toxins whose binding sites are at the outer membrane. In our previous work, we have shown that such a basic profile ...

[6] = system: tetrodotoxin-resistant (TTX-R) Na^+ channels; conditions: cited from earlier work
[7] = system: VGSCs in cardiac or skeletal muscles; conditions: mammals; ref previous works; cited from earlier work
[8] = system: voltage-gated Na^+ channels; test: voltage-gated Na^+ channels, summary of screening; format: cell-based, rat; conditions: 100 μM
para/tipE = conditions: Xenopus laevis oocytes; ref previous works; cited from earlier work
[9] = system: voltage-gated L-type Ca^2+ channels; test: L-type Ca^2+ channels from DRG, whole-cell patch-clamp; format: cell-based; conditions: 100 μM; rat DRG; n = 5
[10] = system: voltage-gated Ca^2+ channels; test: voltage-gated Ca^2+ channels, summary of screening; format: cell-based, rat; conditions: 100 μM
[11] = system: mouse phrenic nerve-diaphragm preparations; test: phrenic nerve-diaphragm twitch-tension (phrenic nerve conduction block)
Protocol: The twitch-tension experiments were performed using mouse phrenic nerve-diaphragm preparations. Adult Kunming albino mice (18–22 g of either gender) were killed by cervical dislocation. After dissection, the preparations were placed in a Plexiglas chamber immersed in Tyrode’s solution or toxin solutions continuously bubbled with 95% O2, 5% CO2 and maintained at 30–32 °C. The electrical stimulation was applied indirectly to the phrenic nerve with a suction electrode at 0.2 Hz with pulses of 0.2 ms in duration and supramaximally. For direct stimulation, the muscle was stimulated at a frequency of 0.2 Hz (supramaximal, 2 ms, square wave). A mechanical-electric transducer made of a semiconductor strain gauge was used to transform the twitch responses into electric signals. […] The time from the application of HNTX-I to complete blocking of neuromuscular transmission was defined as blocking time, and the concentrations of HNTX-I we used were 1 μM, 10 μM and 100 μM.

neuronal TTX-S VGSCs = conditions: adult rat dorsal root ganglion neurons; ref previous works (ref 9); cited from earlier work
hERG K^+ channel = conditions: 100 μM
[12] = intravenous, 0.5–2.5 mg/kg, seven days

T1 sequence (O15554 whole entry): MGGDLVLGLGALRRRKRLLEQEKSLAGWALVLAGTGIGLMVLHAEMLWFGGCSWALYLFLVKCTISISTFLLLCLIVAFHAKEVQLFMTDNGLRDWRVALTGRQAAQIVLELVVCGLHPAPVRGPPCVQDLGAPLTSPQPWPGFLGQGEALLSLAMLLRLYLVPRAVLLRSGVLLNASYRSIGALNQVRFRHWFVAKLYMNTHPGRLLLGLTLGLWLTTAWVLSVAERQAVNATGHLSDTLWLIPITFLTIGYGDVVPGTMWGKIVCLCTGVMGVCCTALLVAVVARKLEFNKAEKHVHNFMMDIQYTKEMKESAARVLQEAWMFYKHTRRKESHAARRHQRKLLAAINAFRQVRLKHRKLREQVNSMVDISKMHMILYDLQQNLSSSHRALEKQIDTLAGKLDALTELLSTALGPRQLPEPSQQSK

CCn1c(=O)[nH]c2cc(Cl)c(Cl)cc21 [DC-EBIO, 5,6-dichloro-1-ethyl-1,3-dihydro-2H-benzimidazole-2-one]
pIC50 (L-type Ca^2+ channels): 4.15

O=C1Nc2c(ccc(Cl)c2Cl)C1=NO [NS309, 3-oxime-6,7-dichloro-1H-indole-2,3-dione, reference compound]
pIC50 (L-type Ca^2+ channels): 5.00 | inhibition of cardiac hERG K^+ channels [1]: inhibits | activation of hIK1 channels in the presence of HNTX-I (hIK1 [2]; 100 nM NS309, 80 μM HNTX-I): activated hIK1 channels | activation of current after HNTX-I (fold) (hIK1 [2]; 100 nM NS309 after application of 80 μM HNTX-I): about 1.5 fold | influence of HNTX-I on potency and kinetics of NS309 (hIK1 [2]; 100 nM NS309 in the presence of 80 μM HNTX-I): not notably influenced by HNTX-I | time to peak of NS309 activation (hIK1 [2]; 100 nM NS309 in the presence of 80 μM HNTX-I, n = 5): under 1 min | pEC50 (hIK1 [3]): 7.52

Hainantoxin-I [HNTX-I]
clinical appearance (mice; intravenous, 0.5, 1.0, 1.5, 2.0 and 2.5 mg/kg, five mice per dose, seven-day study): appeared clinically normal | aggressive/defensive responses (mice; [12]): no aggressive/defensive responses were elicited | death (mice; [12]): did not cause death at any concentration | depilation of pelage (mice; [12]): not depilated | effect on T-type Ca^2+ channels [4]: no effect | symptoms of poisoning [5]: did not produce symptoms of poisoning | block of rNav1.2/β1 (rNav1.2/β1): selectively blocks | enhancement of the amplitude of IK currents (hIK1 [2]; 40 μM HNTX-I, n = 5): 33.2% ± 0.5 | reversibility / dose-dependency on hIK1 (hIK1 [2]; 80 μM HNTX-I): clearly demonstrated the dose-dependency, as well as reversible nature | time to yield higher current (hIK1 [2]; 80 μM HNTX-I, after initial equilibration, before NS309): ~ 3 min | enhancement of the amplitude of IK currents (hIK1 [2]; 80 μM HNTX-I, n = 5): 97% ± 0.7 | Imax (hIK1 [2]; 80 μM HNTX-I, current shortly before application = 100%): 197% | Imax at higher concentration (hIK1 [2]; 200 μM HNTX-I, compared with 80 μM): did not change | time to reach higher current level (hIK1 [2]; after 40 μM HNTX-I applied, n = 5): ~ 3 min | return of current to baseline upon washing (hIK1 [2]; washing after 40 μM HNTX-I, n = 5): the current returned to baseline with approximately the same time characteristics | effect on BK channels (BK channels): no effect | inhibition of VGSCs in vertebrates and insects (VGSCs): inhibits VGSCs | effect on TTX-R Na^+ channels [6]: no effect | effect on VGSCs in cardiac or skeletal muscles [7]: nor does it target VGSCs | sensitivity of voltage-gated Na^+ channels [8]: insensitive | block of para/tipE (para/tipE): selectively blocks | effect on L-type Ca^2+ channels [9]: no effect | sensitivity of voltage-gated Ca^2+ channels [10]: insensitive | inhibition of nerve-evoked twitch tension ([11]; 1 μM, Tyrode's solution, 30–32 °C): did not inhibit the nerve-evoked twitch tension | influence on neuromuscular transmission ([11]; 100 μM or lower): did not influence the neuromuscular transmission | blockade of twitch responses ([11]; 10 and 100 μM, within 4 h, n = 5): no apparent blockades in the twitch responses | effect on neuronal TTX-S VGSCs (neuronal TTX-S VGSCs): no effect | sensitivity of hERG K^+ channels (hERG K^+ channel): insensitive | effect on hERG K^+ channel (hERG K^+ channel; HEK293T cells, n = 5): no effect
